{
  "source": "patent US20020103111A1",
  "about": "“Inhibitors of MAdCAM-1-mediated interactions and methods of use therefor” (Millennium Pharmaceuticals, Inc., priority 1996, published 2002)",
  "data": [
    {"biological_target": "T1, human MAdCAM-1 (huMAdCAM-1-Ig chimera); RPMI 8866 cells expressing α4β7 (Homo sapiens, UniProt P13612+P26010)", "T1 construct": "RPMI 8866 cells, a B cell lymphoma expressing α4β7; endogenous in cells; host or cells: RPMI 8866 cells (endogenous α4β7)", "T1 sequence (P13612 34-1032, change not shown)": "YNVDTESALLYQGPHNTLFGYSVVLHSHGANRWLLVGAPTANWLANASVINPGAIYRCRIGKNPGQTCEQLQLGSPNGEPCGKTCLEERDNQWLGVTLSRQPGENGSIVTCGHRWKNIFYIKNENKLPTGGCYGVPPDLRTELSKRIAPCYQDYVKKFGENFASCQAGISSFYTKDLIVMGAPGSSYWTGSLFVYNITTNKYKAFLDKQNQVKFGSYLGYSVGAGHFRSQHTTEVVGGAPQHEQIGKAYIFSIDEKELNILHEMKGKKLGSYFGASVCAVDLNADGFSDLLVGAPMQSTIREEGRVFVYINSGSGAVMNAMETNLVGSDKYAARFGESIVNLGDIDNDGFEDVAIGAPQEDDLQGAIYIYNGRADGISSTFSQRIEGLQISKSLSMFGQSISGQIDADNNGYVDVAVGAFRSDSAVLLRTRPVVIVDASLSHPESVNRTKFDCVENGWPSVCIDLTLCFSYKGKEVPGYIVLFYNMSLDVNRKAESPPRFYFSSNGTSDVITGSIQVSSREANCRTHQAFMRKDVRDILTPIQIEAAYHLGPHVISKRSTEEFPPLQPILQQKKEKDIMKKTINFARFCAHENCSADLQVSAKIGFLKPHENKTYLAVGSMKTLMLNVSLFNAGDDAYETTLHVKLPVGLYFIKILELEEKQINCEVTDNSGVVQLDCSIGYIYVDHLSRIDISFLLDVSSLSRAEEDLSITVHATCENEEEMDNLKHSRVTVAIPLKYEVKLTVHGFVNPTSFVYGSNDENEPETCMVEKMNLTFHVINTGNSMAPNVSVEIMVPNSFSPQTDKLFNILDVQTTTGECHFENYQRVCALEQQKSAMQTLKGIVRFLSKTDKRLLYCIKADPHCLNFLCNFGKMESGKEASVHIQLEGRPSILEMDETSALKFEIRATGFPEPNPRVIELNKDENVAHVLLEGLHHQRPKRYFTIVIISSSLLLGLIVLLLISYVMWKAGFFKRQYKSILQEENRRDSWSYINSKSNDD", "T1 sequence (P26010 20-798, change not shown)": "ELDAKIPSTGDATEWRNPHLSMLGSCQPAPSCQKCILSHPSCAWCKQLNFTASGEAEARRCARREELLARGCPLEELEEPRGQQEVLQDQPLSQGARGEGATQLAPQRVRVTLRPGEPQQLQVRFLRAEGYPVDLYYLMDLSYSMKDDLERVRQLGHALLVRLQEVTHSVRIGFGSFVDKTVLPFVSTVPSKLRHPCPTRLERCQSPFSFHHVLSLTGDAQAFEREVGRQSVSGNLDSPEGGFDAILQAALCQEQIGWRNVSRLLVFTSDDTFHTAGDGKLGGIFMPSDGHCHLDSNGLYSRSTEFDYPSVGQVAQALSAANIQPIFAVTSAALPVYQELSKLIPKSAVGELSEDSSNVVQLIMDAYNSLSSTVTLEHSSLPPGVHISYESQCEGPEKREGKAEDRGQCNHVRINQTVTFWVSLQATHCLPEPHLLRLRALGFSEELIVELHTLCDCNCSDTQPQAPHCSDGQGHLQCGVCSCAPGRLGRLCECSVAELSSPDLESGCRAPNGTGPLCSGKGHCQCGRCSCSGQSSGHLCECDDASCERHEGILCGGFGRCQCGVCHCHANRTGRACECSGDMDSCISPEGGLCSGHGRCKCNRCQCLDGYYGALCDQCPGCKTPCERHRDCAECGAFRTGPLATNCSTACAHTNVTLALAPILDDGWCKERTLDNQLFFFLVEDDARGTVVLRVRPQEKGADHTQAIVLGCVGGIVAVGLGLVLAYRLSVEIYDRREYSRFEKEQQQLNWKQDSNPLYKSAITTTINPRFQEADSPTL", "experiment": "huMAdCAM-1-Ig/RPMI 8866 Adhesion Assay", "assay_type": "cell-based", "conditions": "Table 6, R1-Leu-Asp-Thr, read-out: hMAdCAM IC50", "description": "(§1) RPMI 8866 cells, a B cell lymphoma expressing α4β7 (a gift from D. Erle; Erle, D. J. et al., J. Immunol., 153:517-528 (1994); Shyjan et al., Journal of Immunology, 1996:2851 (1996) were fluorescently labeled (labeling protocol provided below) using BCECF (Molecular probes #B-1170). Cells were resuspended in an assay buffer consisting of Hanks Balanced Salt Solution (HBSS) supplemented with fetal calf serum (FCS) at a final concentration of 2%, HEPES, pH 7.3 at 25 mM. All reagents in this buffer were supplied from Gibco/BRL.\n(§2) All assays were performed in 96 well strip well plates from Costar (E.I.A./R.I.A. Strip plate-8 Cat. #2581). […] The plates were incubated at 37° C. for one hour (or at 4° C. overnight) and washed once in the automatic plate washer (50 mM Tris HCl, 0.14 M NaCl and 2.0 mM MnCl2 at pH 7.2) (Bio-Tek EL 404 microplate autowasher). Wells were then blocked with PBS (phosphate buffered saline) and 10% FCS (100 μl/well) for one hour at 37° C. followed by the same wash step as described.\n(§3) Cells were labeled with BCECF-AM (Molecular Probes, Cat. No. B-1170) at a concentration of 2 μl/ml to a cell suspension of 4×10^6 cells/ml in PBS. The cells were incubated in a 37° C. water bath for 30 minutes. Labeled cells were centrifuged at 700 RPM for 10 minutes, resuspended in assay buffer and the centrifugation step was repeated. The cells were resuspended at a final concentration of 2.5×10^6 cells/ml.\n(§4) For assays, compounds were diluted as follows in a 96 well polypropylene plate. First, a stock solution of each compound was prepared by dissolving compound in 100% DMSO at 100X final concentration to be tested. 10 μl of the stock was added to 90 μl water for the first test dilution. 50 μl of the first test dilution was added to 50 μl of 10% DMSO in water for the second test dilution. 50 μl of the second test dilution was added to 50 μl of 10% DMSO in water for the third test dilution. 50 μof the third test dilution was added to 50 μl of 10% DMSO in water for the fourth test dilution, and so on, until six test dilutions were prepared.\n(§5) A stock solution of SmM positive control peptide (L783-1A) was made in 100% DMSO, and subsequently diluted in water 1:10 (10 μl of 5 mM stock plus 90 μl of water) to yield a concentration of 0.5mM. This dilution was then further diluted 1:2 with 10% DMSO (50 μl of the compound and 50 μl of 10% DMSO) for a concentration of 250 μM. These 1:2 dilutions were continued serially until six dilutions were achieved. These dilutions represent 10X stocks as shown in the assay set up below:\n(§6) The assay was set up by adding materials to huMAdCAM-1-Ig-coated plates as follows:\n(§7) 1) 130 μl/well of assay buffer\n(§8) 2) 20 μl/well of diluted compounds or 10% DMSO (control) or diluted positive control peptide.\n(§9) 3) 50 μl of ECECF-AM-labeled RPMI 8866 cells\n(§10) The plates were wrapped in foil and incubated for 30 minutes at room temperature on a rotary shaker at 45 RPM.\n(§11) Plates were washed twice (50 mM Tris HCl, […] and 2.0 mM MnCl2 at pH 7.2) on the microplate autowasher plate washer set as follows:\n(§12) Plates were read in an IDEX fluoresecent plate reader set to excite at 485 nm and read at 535 nm.\n(§13) Data was collected in microsoft excel in a format for automatic IC 50 determinations.", "units": {"IC50": "nM"}, "values": [
      {"smiles": "CC(C)C[C@H](NC(=O)c1coc2ccccc2c1=O)C(=O)N[C@@H](CC(=O)O)C(=O)N[C@H](C(N)=O)[C@@H](C)O", "note": "[Table 6 example 2]", "IC50": 730},
      {"smiles": "CC(C)C[C@H](NC(=O)c1cccc(Cl)c1)C(=O)N[C@@H](CC(=O)O)C(=O)N[C@H](C(N)=O)[C@@H](C)O", "note": "[Table 6 example 3]", "IC50": 1400},
      {"smiles": "CC(C)C[C@H](NC(=O)c1ccc(C(C)(C)C)cc1)C(=O)N[C@@H](CC(=O)O)C(=O)N[C@H](C(N)=O)[C@@H](C)O", "note": "[Table 6 example 4]", "IC50": 1100},
      {"smiles": "CC(C)C[C@H](NC(=O)c1sccc1Br)C(=O)N[C@@H](CC(=O)O)C(=O)N[C@H](C(N)=O)[C@@H](C)O", "note": "[Table 6 example 6]", "IC50": 2600},
      {"smiles": "CC(C)C[C@H](NC(=O)c1cccc(C(F)(F)F)c1)C(=O)N[C@@H](CC(=O)O)C(=O)N[C@H](C(N)=O)[C@@H](C)O", "note": "[Table 6 example 7]", "IC50": 2800},
      {"smiles": "CC(C)C[C@H](NC(=O)c1cccc(F)c1F)C(=O)N[C@@H](CC(=O)O)C(=O)N[C@H](C(N)=O)[C@@H](C)O", "note": "[Table 6 example 8]", "IC50": 2000},
      {"smiles": "Cc1nc(Cl)ccc1C(=O)N[C@@H](CC(C)C)C(=O)N[C@@H](CC(=O)O)C(=O)N[C@H](C(N)=O)[C@@H](C)O", "note": "[Table 6 example 9]", "IC50": 1100}
    ]},
    {"biological_target": "T1, human MAdCAM-1 (huMAdCAM-1-Ig chimera); RPMI 8866 cells expressing α4β7", "experiment": "huMAdCAM-1-Ig/RPMI 8866 Adhesion Assay", "assay_type": "cell-based", "conditions": "Table 7, R1-Leu-Asp-Thr-R2, read-out: hMAdCAM IC50", "description": "as §1, §2, §3, §4, §5, §6, §7, §8, §9, §10, §11, §12, §13", "units": {"IC50": "nM"}, "values": [
      {"smiles": "CC(C)C[C@H](NC(=O)c1cc2ccccc2cn1)C(=O)N[C@@H](CC(=O)O)C(=O)N[C@H](C(=O)N1CCc2ccccc2C1)[C@@H](C)O", "note": "[Table 7 example 1]", "IC50": 780},
      {"smiles": "CC(C)C[C@H](NC(=O)c1cc2ccccc2cn1)C(=O)N[C@@H](CC(=O)O)C(=O)N[C@H](C(=O)N1CCC(C)OC1C)[C@@H](C)O", "note": "(some centres unmarked) [Table 7 example 3]", "IC50": 970},
      {"smiles": "CC(C)C[C@H](NC(=O)c1cc2ccccc2cn1)C(=O)N[C@@H](CC(=O)O)C(=O)N[C@H](C(=O)NCCC1=CCCCC1)[C@@H](C)O", "note": "[Table 7 example 4]", "IC50": 640},
      {"smiles": "Cc1cccc(CNC(=O)[C@@H](NC(=O)[C@H](CC(=O)O)NC(=O)[C@H](CC(C)C)NC(=O)c2cc3ccccc3cn2)[C@@H](C)O)c1", "note": "[Table 7 example 5]", "IC50": 810},
      {"smiles": "CC(C)C[C@H](NC(=O)c1cc2ccccc2cn1)C(=O)N[C@@H](CC(=O)O)C(=O)N[C@H](C(=O)N[C@@H](C)c1cccc2ccccc12)[C@@H](C)O", "note": "[Table 7 example 6]", "IC50": 970},
      {"smiles": "CC(C)C[C@H](NC(=O)c1cc2ccccc2cn1)C(=O)N[C@@H](CC(=O)O)C(=O)N[C@H](C(=O)NC1CC1)[C@@H](C)O", "note": "[Table 7 example 7]", "IC50": 3800},
      {"smiles": "CC(C)C[C@H](NC(=O)c1cc2ccccc2cn1)C(=O)N[C@@H](CC(=O)O)C(=O)N[C@H](C(=O)NC1CCCCCCC1)[C@@H](C)O", "note": "[Table 7 example 8]", "IC50": 1300},
      {"smiles": "CC(C)C[C@H](NC(=O)c1cc2ccccc2cn1)C(=O)N[C@@H](CC(=O)O)C(=O)N[C@H](C(=O)NCCO)[C@@H](C)O", "note": "[Table 7 example 9]", "IC50": 1500},
      {"smiles": "CC(C)C[C@H](NC(=O)c1cc2ccccc2o1)C(=O)N[C@@H](CC(=O)O)C(=O)N[C@H](C(=O)NC1CCc2ccccc21)[C@@H](C)O", "note": "(some centres unmarked) [Table 7 example 10]", "IC50": 1500}
    ]},
    {"biological_target": "T1, human MAdCAM-1 (huMAdCAM-1-Ig chimera); RPMI 8866 cells expressing α4β7", "experiment": "huMAdCAM-1-Ig/RPMI 8866 Adhesion Assay", "assay_type": "cell-based", "conditions": "read-out: hMAdCAM IC50, Table 7, R1-Leu-Asp-Thr-R2", "description": "as §1, §2, §3, §4, §5, §6, §7, §8, §9, §10, §11, §12, §13", "units": {"IC50": "nM"}, "values": [
      {"smiles": "CC(C)C[C@H](NC(=O)c1cc2ccccc2cn1)C(=O)N[C@@H](CC(=O)O)C(=O)N[C@H](C(=O)N1CCC(=O)CC1)[C@@H](C)O", "note": "[Table 7 example 2]", "IC50": 940}
    ]}
  ]
}
